Eight compounds from patent US20220323406A1, “METHODS AND COMPOSITIONS FOR DIFFERENTIATING STEM CELLS” (Massachusetts Institute of Technology, priority 2019, published 2022) can be followed below.

Where a name gives a salt, the structure may show the parent alone.

Test [1] has as its system ENR+CD organoids (ISC to Paneth cell differentiation). The test can be described thus: Primary screen: CCh-stimulated lysozyme secretion LYZ.S, 2.5-D 384-well ENR+CD organoid differentiation. Format: cell-based, mouse. The conditions noted are these: primary screen. From the text: (§1) High-throughput screening.
In the next test the test system is ENR+CD organoids. Kind of test: Primary screen: ATP (CellTiter-Glo 3D, CTG) cell number/viability, 2.5-D 384-well ENR+CD organoids.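 On all read-outs here: compounds given at plating and again on day 3 over a 6-day differentiation from ENR+CV stem-cell-enriched precursors, ATP measured on day 6, plate median as control.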 The following applies: primary screen; for Z.CTG: standard z score.
The subject of test [2] is ENR+CD organoids (ISC to Paneth cell differentiation). The test can be described thus: Primary screen: basal (non-stimulated) lysozyme secretion LYZ.NS, 2.5-D 384-well ENR+CD organoid differentiation. The class given is cell-based, mouse. The conditions noted are these: primary screen; for Z.LYZ.NS: standard z score.
From the text: as §1

[3] abbreviates: dose 0.08 uM, FC vs plate median.
[4] abbreviates: dose 0.40 uM, FC vs plate median.
[5] abbreviates: dose 2.00 uM, FC vs plate median.
[6] abbreviates: dose 10.00 uM, FC vs plate median.
Where [7] appears, read: dose 0.08 uM, FC relative to plate median.
[8] abbreviates: dose 0.40 uM, FC relative to plate median.
The mark [9] stands for this setting: dose 2.00 uM, FC relative to plate median.
The mark [10] stands for this setting: dose 10.00 uM, FC relative to plate median.

Turning to `CS(=O)(=O)c1cccc(CNc2nc(Nc3ccc4c(c3)CCC(=O)N4)ncc2C(F)(F)F)c1` [PF-573228], the Dose.FC.LYZ.S in test [1] (setting [3]) was 0.114 log2 fold change; in test [1] (setting [4]) it was 0.002 log2 fold change; in test [1] (setting [5]) it was −0.174 log2 fold change; in test [1] (setting [6]) it was −0.305 log2 fold change. Also, the Z.CTG in the test with ENR+CD organoids (dose 0.08 uM) is given as 0.183; in the test on ENR+CD organoids (dose 0.40 uM) it was −0.129; in the test with ENR+CD organoids (dose 2.00 uM), −1.037; in the test with ENR+CD organoids (dose 10.00 uM) it was −1.188. The Dose.FC.CTG in the test with ENR+CD organoids (setting [3]) is 0.077 log2 fold change; with ENR+CD organoids (setting [4]), −0.054 log2 fold change; with ENR+CD organoids (setting [5]) it was −0.434 log2 fold change; with ENR+CD organoids (setting [6]), −0.497 log2 fold change. Further, the Z.LYZ.NS is listed as 0.089 in test [2] (dose 0.08 uM), −0.401 in test [2] (dose 0.40 uM), −0.502 in test [2] (dose 2.00 uM) and −2.180 in test [2] (dose 10.00 uM). In addition, the Dose.FC.LYZ.NS in test [2] (setting [3]) is reported as 0.010 log2 fold change; in test [2] (setting [4]) it was −0.046 log2 fold change; in test [2] (setting [5]), −0.058 log2 fold change; in test [2] (setting [6]), −0.250 log2 fold change.

For `CC(C)c1onc(-c2c(Cl)cccc2Cl)c1COc1ccc(/C=C/c2cccc(C(=O)O)c2)c(Cl)c1` [GW4064], the “Dose.FC.LYZ.S (log2 fold change)” value is listed as 0.028 in test [1] (dose 0.08 uM), 0.097 in test [1] (dose 0.40 uM), 0.000 in test [1] (dose 2.00 uM) and −0.071 in test [1] (dose 10.00 uM). Besides, the “Dose.FC.CTG (log2 fold change)” value with ENR+CD organoids (dose 0.08 uM) is −0.134; in the test on ENR+CD organoids (dose 0.40 uM), 0.140; with ENR+CD organoids (dose 2.00 uM) it was −0.145; with ENR+CD organoids (dose 10.00 uM), −0.157. Besides, the “Z.CTG (standard z score)” value is listed as −0.320 in the test with ENR+CD organoids (dose 0.08 uM), 0.334 in the test on ENR+CD organoids (dose 0.40 uM), −0.346 in the test with ENR+CD organoids (dose 2.00 uM) and −0.375 in the test on ENR+CD organoids (dose 10.00 uM). For the same compound, the “Dose.FC.LYZ.NS (log2 fold change)” value in test [2] (dose 0.08 uM) is on record as 0.170; in test [2] (dose 0.40 uM), −0.022; in test [2] (dose 2.00 uM), 0.022; in test [2] (dose 10.00 uM) it was −0.059. Besides, the “Z.LYZ.NS (standard z score)” value is 1.476 in test [2] (dose 0.08 uM), −0.194 in test [2] (dose 0.40 uM), 0.196 in test [2] (dose 2.00 uM) and −0.516 in test [2] (dose 10.00 uM).

On to `CN(C)CCc1c[nH]c2ccc(Cn3cncn3)cc12` [Rizatriptan Benzoate], for which the Dose.FC.LYZ.S in test [1] (setting [7]) is listed as 0.179 log2 fold change; in test [1] (setting [8]) it was 0.019 log2 fold change; in test [1] (setting [9]), −0.009 log2 fold change; in test [1] (setting [10]), 0.105 log2 fold change. In addition, the Dose.FC.CTG in the test with ENR+CD organoids (setting [7]) is listed as 0.214 log2 fold change; with ENR+CD organoids (setting [8]), 0.109 log2 fold change; in the test on ENR+CD organoids (setting [9]) it was 0.126 log2 fold change; in the test on ENR+CD organoids (setting [10]), −0.054 log2 fold change. For the same compound, the Dose.FC.LYZ.NS in test [2] (setting [7]) came to 0.070 log2 fold change; in test [2] (setting [8]) it was 0.148 log2 fold change; in test [2] (setting [9]), 0.027 log2 fold change; in test [2] (setting [10]), 0.000 log2 fold change. Also, the Z.LYZ.NS in test [2] (dose 0.08 uM) is 0.613; in test [2] (dose 0.40 uM), 1.289; in test [2] (dose 2.00 uM), 0.238; in test [2] (dose 10.00 uM) it was −0.003.

On to `C#CCN[C@@H]1CCc2ccccc21` [Rasagiline Mesylate], for which the Dose.FC.LYZ.S in test [1] (setting [7]) stood at 0.140 log2 fold change; in test [1] (setting [8]), 0.077 log2 fold change; in test [1] (setting [9]) it was 0.014 log2 fold change; in test [1] (setting [10]) it was 0.026 log2 fold change. For the same compound, the Dose.FC.CTG is 0.154 log2 fold change with ENR+CD organoids (setting [7]), 0.103 log2 fold change with ENR+CD organoids (setting [8]), 0.041 log2 fold change with ENR+CD organoids (setting [9]) and 0.104 log2 fold change in the test with ENR+CD organoids (setting [10]). The Dose.FC.LYZ.NS in test [2] (setting [7]) is 0.072 log2 fold change; in test [2] (setting [8]), 0.013 log2 fold change; in test [2] (setting [9]), 0.048 log2 fold change; in test [2] (setting [10]) it was −0.034 log2 fold change. Further, the Z.LYZ.NS was 0.631 in test [2] (dose 0.08 uM), 0.117 in test [2] (dose 0.40 uM), 0.417 in test [2] (dose 2.00 uM) and −0.294 in test [2] (dose 10.00 uM).

With `OC(CNCC(O)C1CCc2cc(F)ccc2O1)C1CCc2cc(F)ccc2O1` (centres unmarked) [Nebivolol], the Dose.FC.LYZ.S was 0.194 log2 fold change in test [1] (setting [3]), 0.282 log2 fold change in test [1] (setting [4]), 0.069 log2 fold change in test [1] (setting [5]) and 0.105 log2 fold change in test [1] (setting [6]). The Dose.FC.CTG in the test with ENR+CD organoids (setting [3]) was 0.388 log2 fold change; in the test on ENR+CD organoids (setting [4]) it was 0.220 log2 fold change; in the test with ENR+CD organoids (setting [5]) it was 0.312 log2 fold change; with ENR+CD organoids (setting [6]), 0.209 log2 fold change. The Z.LYZ.NS came to 1.525 in test [2] (dose 0.08 uM), 2.776 in test [2] (dose 0.40 uM), 0.960 in test [2] (dose 2.00 uM) and 0.836 in test [2] (dose 10.00 uM). Also, the Dose.FC.LYZ.NS in test [2] (setting [3]) is 0.175 log2 fold change; in test [2] (setting [4]), 0.319 log2 fold change; in test [2] (setting [5]), 0.110 log2 fold change; in test [2] (setting [6]) it was 0.096 log2 fold change.

As for `O=C(NCc1ccccc1)c1csc(Nc2ccncn2)n1` [Thiazovivin], the Dose.FC.LYZ.S in test [1] (dose 0.08 uM) amounted to 0.142 log2 fold change; in test [1] (dose 0.40 uM), 0.060 log2 fold change; in test [1] (dose 2.00 uM), 0.064 log2 fold change; in test [1] (dose 10.00 uM), 0.037 log2 fold change. In addition, the Dose.FC.CTG in the test with ENR+CD organoids (dose 0.08 uM) turned out to be 0.141 log2 fold change; in the test with ENR+CD organoids (dose 0.40 uM), 0.113 log2 fold change; in the test with ENR+CD organoids (dose 2.00 uM), 0.312 log2 fold change; in the test with ENR+CD organoids (dose 10.00 uM) it was 0.189 log2 fold change. The “Z.CTG (standard z score)” value in the test with ENR+CD organoids (dose 0.08 uM) is given as 0.337; in the test with ENR+CD organoids (dose 0.40 uM) it was 0.271; with ENR+CD organoids (dose 2.00 uM), 0.746; with ENR+CD organoids (dose 10.00 uM), 0.451. Further, the Dose.FC.LYZ.NS is listed as 0.090 log2 fold change in test [2] (dose 0.08 uM), 0.070 log2 fold change in test [2] (dose 0.40 uM), 0.024 log2 fold change in test [2] (dose 2.00 uM) and −0.069 log2 fold change in test [2] (dose 10.00 uM). Also, the “Z.LYZ.NS (standard z score)” value in test [2] (dose 0.08 uM) is 0.780; in test [2] (dose 0.40 uM), 0.611; in test [2] (dose 2.00 uM), 0.205; in test [2] (dose 10.00 uM) it was −0.605.

`COc1cc2c(cc1OC)CN(CCc1ccc(NC(=O)c3cc(OC)c(OC)cc3NC(=O)c3cnc4ccccc4c3)cc1)CC2` [Tariquidar]: the Dose.FC.LYZ.S is 0.040 log2 fold change in test [1] (setting [7]), 0.073 log2 fold change in test [1] (setting [8]), 0.059 log2 fold change in test [1] (setting [9]) and 0.019 log2 fold change in test [1] (setting [10]). Besides, the Dose.FC.CTG in the test with ENR+CD organoids (setting [7]) was −0.117 log2 fold change; in the test on ENR+CD organoids (setting [8]) it was 0.054 log2 fold change; in the test with ENR+CD organoids (setting [9]), 0.376 log2 fold change; in the test on ENR+CD organoids (setting [10]), 0.227 log2 fold change. For the same compound, the Dose.FC.LYZ.NS in test [2] (setting [7]) amounted to 0.053 log2 fold change; in test [2] (setting [8]), 0.037 log2 fold change; in test [2] (setting [9]) it was 0.031 log2 fold change; in test [2] (setting [10]), 0.034 log2 fold change. For the same compound, the Z.LYZ.NS in test [2] (dose 0.08 uM) is listed as 0.465; in test [2] (dose 0.40 uM), 0.326; in test [2] (dose 2.00 uM), 0.270; in test [2] (dose 10.00 uM) it was 0.292.

`CC(C)NCC(O)COc1ccc(COCCOC(C)C)cc1` (centres unmarked) [Bisoprolol fumarate]: the Dose.FC.LYZ.S in test [1] (dose 0.08 uM) is listed as 0.086 log2 fold change; in test [1] (dose 0.40 uM), 0.129 log2 fold change; in test [1] (dose 2.00 uM), 0.074 log2 fold change; in test [1] (dose 10.00 uM), 0.015 log2 fold change. Also, the Dose.FC.CTG in the test with ENR+CD organoids (dose 0.08 uM) is given as −0.104 log2 fold change; in the test on ENR+CD organoids (dose 0.40 uM), −0.057 log2 fold change; in the test with ENR+CD organoids (dose 2.00 uM) it was −0.020 log2 fold change; with ENR+CD organoids (dose 10.00 uM), 0.058 log2 fold change. In addition, the Dose.FC.LYZ.NS is recorded as 0.085 log2 fold change in test [2] (dose 0.08 uM), 0.075 log2 fold change in test [2] (dose 0.40 uM), 0.075 log2 fold change in test [2] (dose 2.00 uM) and 0.003 log2 fold change in test [2] (dose 10.00 uM). Besides, the “Z.LYZ.NS (standard z score)” value was found to be 0.739 in test [2] (dose 0.08 uM), 0.649 in test [2] (dose 0.40 uM), 0.656 in test [2] (dose 2.00 uM) and 0.027 in test [2] (dose 10.00 uM).
